Laboratory results published in patent US11773071B2, “Benzothiazepine compounds and their use as bile acid modulators” (Albireo AB, priority 2019, dated 2023).

What was measured:
[1] = Bidirectional permeability assay (Caco-2 cells); format: in vitro ADME; conditions: human, Caco-2, absorptive direction (A2B), 10 μM in FaSSIF buffer
Method: (§1) Bidirectional Permeability Assay (Caco-2 Cells)
(§2) Caco-2 cells (Evotec) were seeded at a density of 70,000 cells/well in Millicell® 24-well cell culture insert plates and maintained in an incubator (37° C., 5% CO2, 95% RH) for 21 days with media change on alternate days.
(§3) Stock solutions (10 mM) of the test compounds, atenolol (low permeability marker), propranolol (high permeability marker) and digoxin (substrate for P-gp transport pathway) were prepared in dimethylsulfoxide (DMSO). An intermediate stock solution (1 mM) was prepared by diluting 10 μL of 10 mM master stock solution with 90 μL of neat DMSO. A working stock solution (10 μM) was prepared by diluting 50 μL of 1 mM with 4950 μL of FaSSIF buffer. Post addition of compounds to the FaSSIF, samples were subjected to sonication for 2 hours, and centrifuged at 4000 RPM for 30 minutes at 37° C. The 4 mL of resultant supernatant was directly used in the assay. The final DMSO concentration in the transport experiments was 1%.
(§4) On the day of assay, Caco-2 monolayers were washed twice with transport buffer (HBSS, pH 7.4) and pre-incubated for 30 min (37° C., 5% CO2, 95% RH) in an incubator. The electrical resistance of the monolayers was measured with a Millicell®—ERS system. Monolayers with trans-epithelial electrical resistance (TEER) values greater than 350 ohm·cm^2 were selected for the assay.
(§5) The assay was conducted in absorptive direction (A2B) and secretory (B2A) directions. Transport experiments were initiated by addition of transport assay buffer (FaSSIF buffer prepared in HBSS) consisting of compounds to the donor compartment (apical chamber A-B; basolateral chamber B-A) in duplicate (n=2) wells. Drug free HBSS buffer (pH 7.4) containing 1% bovine serum albumin (BSA) was introduced to the receiver (A-B-basolateral; B-A-Apical) compartments. The volumes of apical and basolateral compartments were 0.4 and 0.8 mL, respectively. After adding dosing solution, plates were incubated in an incubator for 120 minutes at 37° C. After 120 minutes, donor and receiver samples were collected and matrix matched (1:1, 30 μL study sample+30 μL blank buffer) with the opposite buffer. Dosing samples matrix matched (1:1, 30 μL study sample+30 μL blank buffer) with the opposite buffer. Samples were processed by adding acetonitrile containing internal standard (60 μL study sample+200 μL acetonitrile containing internal standard—Tolbutamide, 500 ng/mL). Samples were vortexed and centrifuged at 4000 rpm for 10 minutes. The obtained supernatant (100 μL) was diluted with 100 μL of water and transferred to fresh 96 well plates. The concentration of compounds in the samples was analyzed by liquid chromatography tandem mass spectrometry (LC-MS/MS) method using discovery grade bio-analytical method, as applicable.
(§6) The mean apparent permeability (Papp,×10^−6 cm/sec) of the test compounds, atenolol, propranolol and digoxin were calculated as follows:
(§7) [formula] where dq/dt=rate of transport (rate of transport of compound in the receiver compartment), C0=initial concentration in the donor compartment, A=surface area of the effective filter membrane.

Bioavailability studies = format: in vivo, mice; conditions: male, mouse, plasma, intravenous 1 mg/kg, oral 10 mg/kg
Method: Male mice (C57BL/6 or CD1) or Wistar rats of 8-9 weeks old were used. For each test compound, two groups of 3 animals each were used. One group was administered a single intravenous dose of 1 mg/kg (vehicle 100% DMSO) through the tail vein and the other group was administered a single oral dose of 10 mg/kg through gavage needle. The group that was administered an oral dose was fasted overnight. Blood samples were collected after 0.083, 0.25, 0.5, 1, 2, 4, 6, 8 and 24 hours following intravenous administration, and after 0.25, 0.5, 1, 2, 4, 6, 8 and 24 hours following oral administration. Blood samples were taken from saphenous vein. 0.2% EDTA was used as the anticoagulant. The samples were analyzed by a discovery grade bioanalytical method developed for the estimation of test compound in plasma, using an LC-MS/MS system.

Caco-2 cells = test: Bidirectional permeability assay (Caco-2 cells); format: in vitro ADME; conditions: absorptive direction (A2B); 10 μM in FaSSIF buffer; 120 minutes
Method: as §1, §2, §3, §4, §5, §6, §7

Row | Compound | Papp A→B at 120 min, 10 μM [1] | other results
1 | CCCCC1(CC)CN(c2ccccc2)c2cc(Br)c(OCCC(=O)O)cc2S(=O)(=O)C1 (racemic) [Example 1, 3-((7-Bromo-3-butyl-3-ethyl-1,1-dioxido-5-phenyl-2,3,4,5-tetrahydro-1,5-benzothiazepin-8-yl)oxy)propanoic acid] | 13.4 ×10⁻⁶ cm/s | 
2 | CCCCC1(CCCC)CN(c2ccccc2)c2cc(SC)c(OCC(O)C(=O)O)cc2S(=O)(=O)C1 (racemic) [Example 9, 3-((3,3-Dibutyl-7-(methylthio)-1,1-dioxido-5-phenyl-2,3,4,5-tetrahydro-1,5-benzothiazepin-8-yl)oxy)-2-hydroxypropanoic acid] | 1.6 ×10⁻⁶ cm/s | 
3 | CCCCC1(C)CN(c2ccccc2)c2cc(N(C)C)c(OCCC(=O)O)cc2S(=O)(=O)C1 (single isomer, unassigned) [29, enantiomer 1] | 20.5 ×10⁻⁶ cm/s | 
4 | CCCCC1(CC)CN(c2ccccc2)c2cc(Cl)c(OC(C)CC(=O)O)cc2S(=O)(=O)C1 (single isomer, unassigned) [30, diastereomer 1] | 9 ×10⁻⁶ cm/s | 
5 | CCCCC1(C)CN(c2ccccc2)c2cc(SC)c(OCC(O)C(=O)O)cc2S(=O)(=O)C1 (single isomer, unassigned) [32, diastereomer 1] | 3.3 ×10⁻⁶ cm/s | 
6 | CCCCC1(CC)CN(c2ccccc2)c2cc(SC)c(OCC(C)(F)C(=O)O)cc2S(=O)(=O)C1 (single isomer, unassigned) [35, diastereomer 1] | 4 ×10⁻⁶ cm/s | bioavailability (Bioavailability studies; CD1 mice): 8%
7 | CCCCC1(CC)CN(c2ccccc2)c2cc(SC)c(OCC(C)(O)C(=O)O)cc2S(=O)(=O)C1 (single isomer, unassigned) [48, diastereomer 2] | 3.2 ×10⁻⁶ cm/s | 
8 | CCCCC1(CC)CN(c2ccccc2)c2cc(Br)c(OCCC(=O)O)cc2S(=O)(=O)C1 (single isomer, unassigned) [Example 2, 3-((7-bromo-3-butyl-3-ethyl-1,1-dioxido-5-phenyl-2,3,4,5-tetrahydro-1,5-benzothiazepin-8-yl)oxy)propanoic acid] | 3.4 ×10⁻⁶ cm/s | bioavailability (Bioavailability studies; C57BL/6 mice): 104%
9 | CCCCC1(CC)CN(c2ccccc2)c2cc(Cl)c(OCCC(=O)O)cc2S(=O)(=O)C1 (single isomer, unassigned) [Example 6, 3-((3-butyl-7-chloro-3-ethyl-1,1-dioxido-5-phenyl-2,3,4,5-tetrahydro-1,5-benzothiazepin-8-yl)oxy)propanoic acid] | 13.6 ×10⁻⁶ cm/s | 
10 | CCCCC1(CCCC)CN(c2ccccc2)c2cc(SC)c(OCC(O)C(=O)O)cc2S(=O)(=O)C1 (single isomer, unassigned) [Example 10, 3-((3,3-dibutyl-7-(methylthio)-1,1-dioxido-5-phenyl-2,3,4,5-tetrahydro-1,5-benzothiazepin-8-yl)oxy)-2-hydroxypropanoic acid] | 2.1 ×10⁻⁶ cm/s | bioavailability (Bioavailability studies; C57BL/6 mice): 13%
11 | CCCCC1(CCCC)CN(c2ccccc2)c2cc(SC)c(OCC(O)C(=O)O)cc2S(=O)(=O)C1 (single isomer, unassigned) [Example 11, 3-((3,3-dibutyl-7-(methylthio)-1,1-dioxido-5-phenyl-2,3,4,5-tetrahydro-1,5-benzothiazepin-8-yl)oxy)-2-hydroxypropanoic acid] |  | Permeability (Caco-2) Papp A2B (Caco-2 cells): 1.5e-06 cm/s
12 | CCCCC1(CC)CN(c2ccccc2)c2cc(SC)c(OCCC(=O)O)cc2S(=O)(=O)C1 (single isomer, unassigned) [Example 13, 3-((3-butyl-3-ethyl-7-(methylthio)-1,1-dioxido-5-phenyl-2,3,4,5-tetrahydro-1,5-benzothiazepin-8-yl)oxy)propanoic acid] | 10.3 ×10⁻⁶ cm/s | bioavailability (Bioavailability studies; CD1 mice): 102%
13 | CCCCC1(C)CN(c2ccccc2)c2cc(SC)c(OCCC(=O)O)cc2S(=O)(=O)C1 (single isomer, unassigned) [Example 24, 3-((3-butyl-3-methyl-7-(methylthio)-1,1-dioxido-5-phenyl-2,3,4,5-tetrahydro-1,5-benzothiazepin-8-yl)oxy)propanoic acid] | 22.5 ×10⁻⁶ cm/s | 
14 | CCCCC1(CCCC)CN(c2ccccc2)c2cc(Br)c(OCCC(=O)O)cc2S(=O)(=O)C1 [Example 4, 3-((7-Bromo-3,3-dibutyl-1,1-dioxido-5-phenyl-2,3,4,5-tetrahydro-1,5-benzothiazepin-8-yl)oxy)propanoic acid] | 2.2 ×10⁻⁶ cm/s | 
15 | CCCCC1(CCCC)CN(c2ccccc2)c2cc(SC)c(OCCC(=O)O)cc2S(=O)(=O)C1 [Example 15, 3-((3,3-dibutyl-7-(methylthio)-1,1-dioxido-5-phenyl-2,3,4,5-tetrahydro-1,5-benzothiazepin-8-yl)oxy)propanoic acid] | 9.7 ×10⁻⁶ cm/s | 
16 | CCCCC1(CC)CN(c2ccccc2)c2cc(SC)c(OCC(C)(F)C(=O)O)cc2S(=O)(=O)C1 (centres unmarked) [Example 34, 3-((3-butyl-3-ethyl-7-(methylthio)-1,1-dioxido-5-phenyl-2,3,4,5-tetrahydro-1,5-benzothiazepin-8-yl)oxy)-2-fluoro-2-methylpropanoic acid] | 5.4 ×10⁻⁶ cm/s | 
